Results as given in paper PMC6198068, “Discovery of a Novel Nav1.7 Inhibitor From Cyriopagopus albostriatus Venom With Potent Analgesic Efficacy” (Frontiers in Pharmacology, 2018).
Where a SMILES comes first, the peptide text is derived from it. Bridges are numbered along the chain shown (N, C = ends).

How the values were obtained:
hNav1.7 = molecular target: T1, hNav1.7 (Homo sapiens, UniProt Q15858); assay: Whole-cell patch-clamp, WT Nav1.7 in HEK293T cells; format: cell-based; settings: mean ± SEM
T1 construct: expressed in transfected cells; host or cells: HEK293T
T1 sequence (O60939 30-215): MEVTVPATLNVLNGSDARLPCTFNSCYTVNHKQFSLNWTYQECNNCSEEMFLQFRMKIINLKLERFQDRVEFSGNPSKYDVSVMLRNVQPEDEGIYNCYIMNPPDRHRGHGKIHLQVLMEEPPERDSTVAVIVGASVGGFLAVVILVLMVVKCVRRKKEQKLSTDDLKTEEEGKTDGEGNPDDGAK
T1 sequence (Q15858 other isoform, or with tags, fused parts or gaps): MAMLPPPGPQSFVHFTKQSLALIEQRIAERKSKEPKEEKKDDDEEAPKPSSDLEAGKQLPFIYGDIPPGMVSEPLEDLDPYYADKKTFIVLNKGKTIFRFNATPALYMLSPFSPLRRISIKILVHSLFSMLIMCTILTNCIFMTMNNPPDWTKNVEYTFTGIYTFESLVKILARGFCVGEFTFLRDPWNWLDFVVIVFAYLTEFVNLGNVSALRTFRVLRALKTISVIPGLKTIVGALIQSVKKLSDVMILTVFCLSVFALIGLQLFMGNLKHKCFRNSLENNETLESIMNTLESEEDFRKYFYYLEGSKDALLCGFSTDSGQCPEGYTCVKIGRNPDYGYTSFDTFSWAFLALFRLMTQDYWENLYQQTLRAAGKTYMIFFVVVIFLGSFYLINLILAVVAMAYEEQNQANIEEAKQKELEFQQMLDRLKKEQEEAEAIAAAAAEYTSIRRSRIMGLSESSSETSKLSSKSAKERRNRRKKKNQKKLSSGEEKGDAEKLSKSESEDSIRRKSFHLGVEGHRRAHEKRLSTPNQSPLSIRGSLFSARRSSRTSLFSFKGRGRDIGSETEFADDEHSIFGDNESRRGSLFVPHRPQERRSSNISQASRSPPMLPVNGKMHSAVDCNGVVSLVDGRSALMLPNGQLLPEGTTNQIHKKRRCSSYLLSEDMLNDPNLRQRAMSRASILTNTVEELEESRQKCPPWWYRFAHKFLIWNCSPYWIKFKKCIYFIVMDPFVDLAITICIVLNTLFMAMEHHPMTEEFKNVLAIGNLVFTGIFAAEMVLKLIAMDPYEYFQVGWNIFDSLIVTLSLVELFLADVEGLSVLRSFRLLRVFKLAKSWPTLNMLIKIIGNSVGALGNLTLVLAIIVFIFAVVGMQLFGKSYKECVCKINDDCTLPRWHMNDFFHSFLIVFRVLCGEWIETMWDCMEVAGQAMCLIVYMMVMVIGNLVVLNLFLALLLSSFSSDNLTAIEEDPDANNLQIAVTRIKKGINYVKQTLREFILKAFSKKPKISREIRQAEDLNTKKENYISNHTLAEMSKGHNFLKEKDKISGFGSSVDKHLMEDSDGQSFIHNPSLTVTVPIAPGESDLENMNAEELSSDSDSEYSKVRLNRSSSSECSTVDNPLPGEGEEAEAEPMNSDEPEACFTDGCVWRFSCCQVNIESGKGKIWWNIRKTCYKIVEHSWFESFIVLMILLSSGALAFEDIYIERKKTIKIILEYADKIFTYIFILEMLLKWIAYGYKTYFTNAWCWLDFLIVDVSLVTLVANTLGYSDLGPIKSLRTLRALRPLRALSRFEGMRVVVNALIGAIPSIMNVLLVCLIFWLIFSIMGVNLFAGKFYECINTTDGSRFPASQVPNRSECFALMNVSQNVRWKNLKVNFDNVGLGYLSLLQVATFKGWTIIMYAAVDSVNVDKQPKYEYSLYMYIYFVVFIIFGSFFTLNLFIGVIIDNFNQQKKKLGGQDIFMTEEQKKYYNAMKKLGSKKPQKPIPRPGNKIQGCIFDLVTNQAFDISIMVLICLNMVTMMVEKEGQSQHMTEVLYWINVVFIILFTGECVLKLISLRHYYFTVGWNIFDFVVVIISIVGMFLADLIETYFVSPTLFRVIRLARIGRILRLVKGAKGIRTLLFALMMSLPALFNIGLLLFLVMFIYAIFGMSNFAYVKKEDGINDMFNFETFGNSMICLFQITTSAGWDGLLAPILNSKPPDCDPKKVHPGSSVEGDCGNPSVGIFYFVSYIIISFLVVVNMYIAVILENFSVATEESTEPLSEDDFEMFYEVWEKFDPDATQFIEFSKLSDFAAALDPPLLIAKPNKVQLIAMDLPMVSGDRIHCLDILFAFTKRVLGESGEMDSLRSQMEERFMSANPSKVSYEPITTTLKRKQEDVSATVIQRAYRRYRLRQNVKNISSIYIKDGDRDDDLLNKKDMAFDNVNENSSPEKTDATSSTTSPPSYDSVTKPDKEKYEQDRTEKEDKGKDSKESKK
T1 sequence (Q07699 19-218, further chain): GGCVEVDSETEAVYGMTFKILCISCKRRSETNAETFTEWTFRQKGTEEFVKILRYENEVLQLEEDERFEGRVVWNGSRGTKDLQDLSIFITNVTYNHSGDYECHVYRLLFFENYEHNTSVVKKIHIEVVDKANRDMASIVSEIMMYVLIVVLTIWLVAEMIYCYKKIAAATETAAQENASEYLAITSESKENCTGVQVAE
Text: (§1) The cDNA genes encoding rat Nav1.4 and human Nav1.7 were subcloned into vectors pRGB4 and pcDNA3.1-mod, respectively. Mutations of rNav1.4 (N655D, Q657E, and N655D/Q657E) and hNav1.7 (D816N, E818Q, and D816N/E818Q) were constructed using the Gene Tailor Site-Directed Mutagenesis system (Invitrogen, Carlsbad, CA, United States), according to the manufacturer’s instructions. Nav1.2–Nav1.7 and mutant plasmids together with eGFP were transiently transfected into HEK293T cells while Nav1.8 together with eGFP was transiently transfected into ND7/23 cells by Lipofectamine 2000 (Invitrogen, Carlsbad, CA, United States). Additionally, plasmids β1- and β2-eGFP encoding the human β1 and β2 subunits, respectively, were co-transfected with those encoding WT Nav1.7 and Nav1.7 mutations in HEK293T cells. Human Nav1.9 was transfected into ND7/23 cells according to a previous report ([Zhou et al., 2017]). […] Cells with green fluorescent protein fluorescence were selected for whole-cell patch-clamp recordings 24 h after transfection.
(§2) Whole-cell patch-clamp recordings were performed at room temperature (20–25°C) using an EPC 10 USB Patch Clamp Amplifier (HEKA, Elektronik, Lambrecht, Germany). […] Data was analyzed by software Igo Pro 6.10A (WaveMetrics, Lake Oswego, OR, United States), SigmaPlot 10.0 (Sigma-Aldrich, St. Louis, MO, United States), OriginPro 8 (OriginLab Corp., Northampton, MA, United States), and GraphPad Prism 5 (GraphPad Software, San Diego, CA, United States). […]
Concentration-response curves were fitted using the following Hill logistic equation: y = fmax − (fmax − fmin)/(1 + (x/IC50)^n), where fmax and fmin, respectively, represent the channel’s maximum and minimum responses to toxins, fmin was set to 0, x represents toxin concentration and n is an empirical Hill coefficient. […] Peak inward currents from steady-state inactivation were normalized by the maximum current amplitude and fit with a Boltzmann equation I = Imin + 1/(1 + exp[Vm − V1/2/k]) where I is the current amplitude measured during the test depolarization, V1/2 is the midpoint of inaction, and k is the slope factor. […]

Nav1.7 = molecular target: T2, Nav1.7 (Homo sapiens, UniProt Q15858); assay: I–V relationships and voltage-dependent activation of Nav1.7; format: cell-based; settings: 0.2 μM, n = 10
T2 construct: expressed in transfected cells; host or cells: HEK293T
T2 sequence (O60939 30-215): as the sequence (O60939 30-215) above
T2 sequence (Q15858 other isoform, or with tags, fused parts or gaps): as the sequence (Q15858 other isoform, or with tags, fused parts or gaps) above
T2 sequence (Q07699 19-218, further chain): as the sequence (Q07699 19-218, further chain) above
Text: as §1, with “cells.” for “cells. Human Nav1.9 was transfected into ND7/23 cells according to a previous report ([Zhou et al., 2017]).”
as §2

CC(C)C[C@H](NC(=O)[C@H](CC(=O)O)NC(=O)[C@H](Cc1ccc(O)cc1)NC(=O)[C@H](CCCCN)NC(=O)[C@@H]1CSSC[C@@H]2NC(=O)[C@H](CCCCN)NC(=O)[C@H](CC(=O)O)NC(=O)[C@H](CC(N)=O)NC(=O)[C@H](CO)NC(=O)[C@@H]3CCCN3C(=O)[C@H](CC(N)=O)NC(=O)[C@@H]3CSSC[C@H](NC(=O)[C@H](C(C)C)NC(=O)[C@H](CC(C)C)NC(=O)[C@H](CO)NC(=O)[C@H](CO)NC(=O)[C@H](CO)NC(=O)[C@H](CCCCN)NC(=O)[C@H](CSSC[C@H](NC(=O)[C@H](C)N)C(=O)N[C@@H](CC(C)C)C(=O)NCC(=O)N[C@@H](Cc4ccccc4)C(=O)NCC(=O)N[C@@H](CCC(=O)O)C(=O)N[C@@H](CCCCN)C(=O)N3)NC2=O)C(=O)N[C@@H](CO)C(=O)N[C@@H](CCC(N)=O)C(=O)N[C@@H](CCCCN)C(=O)N[C@@H](Cc2c[nH]cn2)C(=O)N[C@@H](CCCCN)C(=O)N[C@@H](Cc2c[nH]c3ccccc23)C(=O)N1)C(=O)O [Ca2a] (H-ACLGFGEKCNPSNDKCCKSSSLVCSQKHKWCKYDL-OH; disulfide 2-17, 9-24, 16-31 (inferred); N-terminus and C-terminus assumed)
inhibition at 0.2 µM (hNav1.7; HEK-293T, 0.2 μM, read-out: inhibition of Nav1.7 current): 64.5 ± 2.1%
inhibition at 1 µM (hNav1.7; HEK-293T, 1 μM, 50 ms depolarization to −10 mV from −100 mV, room temperature, read-out: inhibition on Nav1.7 currents): 87.3 ± 4.4%
IC50 (hNav1.7; whole-cell patch-clamp, 50 ms to −10 mV from −100 mV, n = 4–7 cells per data point): 98.1 ± 3.3 nM
half-activation voltage of Nav1.7 (Nav1.7; control −20.1 ± 1.1 mV, mean ± SEM): −18.9 ± 1.3 mV
threshold of initial activation voltage, active voltage of peak current, reversal potential of Nav1.7 (I–V) (Nav1.7): did not change
